Columns and labels:
[1] = Lipid nanoparticle size by dynamic laser light scattering before and after overnight dialysis; type: physicochemical; conditions: intensity weighted diameter, LNP with AD-1661; for LNPs Size (nm) change: size after dialysis: after overnight dialysis; for LNPs Size (nm) change: size before dialysis: before overnight dialysis
Method: The size of the lipid nanoparticles was measured before and after undergoing dialysis overnight. In general, greater changes in lipid nanoparticle size are indicative of lesser stability.
Dynamic laser light scattering was used to determine the lipid nanoparticle size (expressed as the intensity weighted diameter) with a Zetasizer (Malvern Instruments, Inc. of Westborough, Mass.). All measurements were made at 532 nm wavelength at the scattering angle of 173° using normal resolution mode as the analysis model.

[2] = HPLC retention time of cationic lipid in lipid nanoparticles relative to cholesterol; type: physicochemical; conditions: HPLC retention time of lipid in LNP (AD-1661 payload) relative to cholesterol; in min (unit assumed)
Method: Furthermore, the HPLC retention time for each biodegradable cationic lipid was measured in lipid nanoparticles prepared from them. The lipid nanoparticles were prepared as described in Example 35 using AD-1661 as the payload. The retention times are reported in the table below relative to the retention time for cholesterol.
The HPLC buffer used was a mixture of two solutions (Solution #1 and Solution #2). • Solution #1: 80% methanol/20% 10 mM NH4HCO3 • Solution #2: 80% methanol/20% isopropanol

| Structure (SMILES) | LNPs Size (nm) change: size after dialysis [1] | LNPs Size (nm) change: size before dialysis [1] | t(lipid) − t(chol) [2] |
| --- | --- | --- | --- |
| CC(C)CCC(CCOC(=O)CCCCCCCCCC(CCCCCCCCCC(=O)OCCC(CCC(C)C)C(C)C)OC(=O)CCCN(C)C)C(C)C (stereo not drawn) |  |  | 2.106 |
| CC(C)CCC(COC(=O)CCCCCCCCCC(CCCCCCCCCC(=O)OCC(CCC(C)C)C(C)C)OC(=O)CCCN(C)C)C(C)C (stereo not drawn) | 60 nm | 59 nm | 1.751 |
| CCCCCC(CCCCC)CCOC(=O)CCCCCCCC(CCCCCCCC(=O)OCCC(CCCCC)CCCCC)OC(=O)CCCN(C)C | 56 -> 56 nm | 56 -> 56 nm | 2.365 |
| CCCCCC(CCCCC)CCOC(=O)CCCCCCCCCC(CCCCCCCCCC(=O)OCCC(CCCCC)CCCCC)OC(=O)CCCN(C)C |  |  | 3.178 |

Continued, values first:

| LNPs Size (nm) change: size after dialysis [1] | LNPs Size (nm) change: size before dialysis [1] | t(lipid) − t(chol) [2] | Structure (SMILES) |
| --- | --- | --- | --- |
| 67 nm | 68 nm | 2.219 | CCCCCCCCCC/C=C\COC(=O)CCCCCCCC(CCCCCCCC(=O)OC/C=C\CCCCCCCCCC)OC(=O)CCCN(C)C |
|  |  | 2.707 | CN(C)CCCC(=O)OC(CCCCCCCC/C=C\CCCCCCCC(=O)OCC(C)(C)C)CCCCCCCC/C=C\CCCCCCCC(=O)OCC(C)(C)C |
| 67 nm | 60 nm | 1.44 | CCCCCCCC/C=C\COC(=O)CCCCCCCC(CCCCCCCC(=O)OC/C=C\CCCCCCCC)OC(=O)CCCN(C)C |
| 77 nm | 73 nm | 0.848 | CCCCCC/C=C\COC(=O)C(C)CCCCCCC(CCCCCCC(C)C(=O)OC/C=C\CCCCCC)OC(=O)CCCN(C)C (stereo not drawn) |

Reference: patent US11679158B2, “Biodegradable lipids for the delivery of active agents” (ALNYLAM PHARMACEUTICALS, INC., priority 2011, dated 2023)
